Laboratory results published in patent publication US4952585A, “Castanospermine esters in the inhibition of tumor metastasis” (Merrell Dow Pharmaceuticals Inc., priority 1988, dated 1990).

Columns and labels:
B16 F10 melanoma cells = experiment: inhibition of pulmonary metastases in C57 mice after pretreatment of B16 F10 melanoma cells with test compound in culture; type: in vivo, C57 male mice; conditions: Mus musculus, B16-F10, 360 h, pulmonary foci counted fifteen days after i.v. inoculation, read-out: per cent inhibition of metastases; for inhibition in vivo at 1 µg/mL: cells pretreated 48 hours with 1 μg/ml; for inhibition in vivo at 10 µg/mL: cells pretreated 48 hours with 10 μg/ml
Method: The lungs provide a convenient organ for the study of metastasis in the animal body.
A single suspension of B16 F10 melanoma cells was prepared from a 14 day old maintenance tumor excised from a C57 male mouse. The tumor was minced and trypsinized followed by dissociation of the cells in minimal essential medium (MEM) with fetal calf serum (FCS) by repeated pipetting. The preparation was passed through a sterile gauze pad, centrifuged, and the cell pellet washed in minimal essential medium without fetal calf serum. A trypan blue wet mount was made to determine the percent of viable cells.
The cells were then plated in 100 mm petri dishes at 0.5×10^6 viable cells/10 ml minimal essential medium with fetal calf serum and incubated at 37° C. for 24 to 48 hours. After incubation, the medium was aspirated and 10 ml of the test compounds at the concentrations of 1 μg or 10 μg/ml MEM with FCS was added. After 24 hours incubation, the medium was aspirated and 10 ml of fresh test compound-medium preparation was added.
Test compounds were dissolved in water or dimethyl sulfoxide and then diluted to the testing concentrations with medium. Control plates receive only medium and/or medium containing dimethyl sulfoxide.
After a total of 48 hours incubation, the testing medium was aspirated, the cells trypsinized and suspended in MEM with FCS. The cells were washed in MEM without FCS and resuspended at the concentration of 10×10^5 cells/ml of MEM without FCS.
C57 male mice weighing 20-25 grams (Charles River) were inoculated intravenously via the tail vein with 2×10^5 cells per 0.2 ml MEM without FCS/mouse. Fifteen days after inoculation, the animals were sacrificed by carbon dioxide inhalation and the lungs were removed and placed in formalin solution. The number of pulmonary foci per animal lung was counted (after separating the lobes) under a lighted dissecting lens.
Data can be expressed as the mean number of foci±S.E. per control and treatment groups. Treatment group data is also expressed as a percent of control and percent of inhibition (100% minus % of control). When the procedure described above was carried out on the castanospermine esters listed below, the per cent inhibition of metastases observed [at the dose, in micrograms per milliliter (μg/ml), given in parentheses] was as follows: […]

[1] = test system: B16 melanoma F10 line cells; experiment: inhibition of metastatic foci in the lungs of C57/BL mice injected i.v. with B16 melanoma F10 line cells, test compound given i.p.; type: in vivo; conditions: 100 mg/kg, i.p. daily from day 1-15; metastatic foci in the lungs vs. controls
Method: In another experiment, 1×10^5 viable B16 melanoma F10 line cells were injected i.v. through the tail vein of C57/BL mice. Test compound was then administered at 100 mg/kg, i.p. daily from day 1-15. At the end of 15 days, the animals were sacrificed and the number of metastatic foci in the lungs were quantitated and compared to controls run simultaneously.

experimental metastasis = conditions: mice; Cancer Research, 46, 5215 (1986); cited from earlier work

| Structure (SMILES) | inhibition in vivo at 1 µg/mL (B16 F10 melanoma cells) [%] | other results |
| --- | --- | --- |
| O=C(O[C@H]1CN2CC[C@H](O)[C@@H]2[C@@H](O)[C@@H]1O)c1ccco1 [[1S-(1α,6β,7α,8β,8aβ)]-Octahydro-1,6,7,8-indolizinetetrol 6-(2-furancarboxylate)] | 51 | % INHIBITION of metastasis [1]: 40% |
| Cc1ccccc1C(=O)O[C@H]1CN2CC[C@H](O)[C@@H]2[C@@H](O)[C@@H]1O [[1S-(1α,6β,7α,8β,8aβ)]-Octahydro-1,6,7,8-indolizinetetrol 6-(2-methylbenzoate)] |  | inhibition in vivo at 10 µg/mL (B16 F10 melanoma cells): 71% |
| Cc1cccc(C(=O)O[C@H]2CN3CC[C@H](O)[C@@H]3[C@@H](O)[C@@H]2O)c1 [[1S-(1α,6β,7α,8β,8aβ)]-Octahydro-1,6,7,8-indolizinetetrol 6-(3-methylbenzoate)] | 78 |  |
| COc1ccc(C(=O)O[C@H]2CN3CC[C@H](O)[C@@H]3[C@@H](O)[C@@H]2O)cc1 [[1S-(1α,6β,7α,8β,8aβ)]-octahydro-1,6,7,8-indolizinetetrol 6-(4-methoxybenzoate)] | 19 |  |
| Cc1ccc(C(=O)O[C@H]2CN3CC[C@H](O)[C@@H]3[C@@H](O)[C@@H]2O)cc1 [[1S-(1α,6β,7α,8β,8aβ)]-octahydro-1,6,7,8-indolizinetetrol 6-(4-methylbenzoate)] |  | inhibition in vivo at 10 µg/mL (B16 F10 melanoma cells): 75%; % INHIBITION of metastasis [1]: 71% |
| CC(=O)O[C@H]1CN2CC[C@H](O)[C@@H]2[C@@H](O)[C@@H]1O [[1S-(1α,6β,7α,8β,8aβ)]-octahydro-1,6,7,8-indolizinetetrol 6-acetate] | > 50 |  |
| O=C(O[C@H]1CN2CC[C@H](O)[C@@H]2[C@@H](O)[C@@H]1O)c1ccccc1 [[1S-(1α,6β,7α,8β,8aβ)]-octahydro-1,6,7,8-indolizinetetrol 6-benzoate] | 35 | % INHIBITION of metastasis [1]: 66% |
| CCCC(=O)O[C@H]1CN2CC[C@H](O)[C@@H]2[C@@H](O)[C@@H]1O [[1S-(1α,6β,7α,8β,8aβ)]-octahydro-1,6,7,8-indolizinetetrol 6-butanoate] |  | inhibition in vivo at 10 µg/mL (B16 F10 melanoma cells): 13% |
| Cc1ccc(C(=O)O[C@H]2[C@H](O)[C@H]3[C@@H](O)CCN3C[C@@H]2O)cc1 [[1S-(1α,6β,7α,8β,8aβ)]-octahydro-1,6,7,8-indolizinetetrol 7-(4-methylbenzoate)] | 65 |  |
| O=C(O[C@H]1[C@H](O)[C@H]2[C@@H](O)CCN2C[C@@H]1O)c1ccccc1 [[1S-(1α,6β,7α,8β,8aβ)]-octahydro-1,6,7,8-indolizinetetrol 7-benzoate] | 23 |  |
| CCC(=O)O[C@H]1[C@H](O)[C@H]2[C@@H](O)CCN2C[C@@H]1O [[1S-(1α,6β,7α,8β,8aβ)]-octahydro-1,6,7,8-indolizinetetrol 7-propionate] | 36 |  |
| O[C@H]1[C@H](O)[C@@H](O)CN2CC[C@H](O)[C@H]12 [castanospermine, (1S,6S,7R,8R,8aR)-1,6,7,8-tetrahydroxyindolizidine] |  | inhibition of experimental metastasis (experimental metastasis): inhibition of experimental metastasis |
